Measured values as given in PMC12648864 (Biology of Sex Differences, 2025).
Where two headings read alike, the source gives them in different places.

Tests used:
[1] = in vivo; conditions: for AUC(0-t) / AUC(0-inf) / Cmax / Tmax / half-life: Sprague-Dawley, rat, plasma, po, 0.59 mg/kg
From the text: In detail, 6 intact 8-week-old male and female Sprague-Dawley (SD) rats, as well as 6 intact 5-week-old male and female SD rats were purchased from Changyang Xishan Breeding Farm (Beijing Changyang Xishan Breeding Farm, China). All rats were provided standard chow and freely-available drinking water. They were acclimatized for 1 week and fasted overnight before drug administration. The rats were divided into intact and GDX groups, with 6 males and 6 females in each group. In GDX group, testes were surgically removed from male rat at 5 weeks of age, while ovaries were excised from female rat. Following surgery, GDX rats were maintained for an additional […] before testing. All animals, both intact and GDX, were tested at 8 weeks of age.
Blood was collected from orbital vein into a centrifuge tube containing sodium heparin at following time points: 5, 10, 15, 30, and 45 min, as well as 1, 1.5, 2, 4, 6, 8, 12, 24, and 48 h. The collected blood was shaken well and centrifuged at 1500 g for 10 min to separate plasma, then stored at −20 ℃ until use. All experimental procedures were reviewed and approved by the Ethical Committee for Use of Laboratory Animals of the Shanxi Medical University (SYDL2025013).
In detail, 180 µL of plasma was pipetted into a tube, followed by the addition of 20 µL of internal standard (100 ng/mL ephedrine) and the mixture was vortexed for 5 s. Next, 1 mL of acetonitrile precipitation protein was added to this mixture, which was vortexed again for 20 s. Finally, the mixture was centrifuged at 13,000 g for 10 min and the supernatant was transferred to a clean tube. This supernatant was evaporated to dryness under a stream of nitrogen at 35 ℃, then reconstituted in 200 µL of a compound solution consisting of methanol and […] ammonium formate (containing 0.1% formic acid) in a 40:60 (v/v) ratio. The reconstituted supernatant was stored at −80 ℃ until use. Subsequently, the supernatant was passed through a 0.22 μm organic filter before analysis using 1260–6470 HPLC-tandem mass spectrometry (MS/MS).
The mobile phase consisted of A: water + […] ammonium formate + 0.1% formic acid, and B: methanol. The gradient elution program was as follows: 0–1 min, 20% B; 1–6.5 min, 20%−80% B; 6.5–7.5 min, 80% B; 7.5–8.5 min, 80%−20% B; 8.5–12 min, 20% B.
MS conditions: Detection was carried out using an Agilent Jet Stream electrospray ionization source in positive ion mode, operating in multiple reaction monitoring mode. The ion source temperature was 300 ℃, and the nebulizer temperature was 305 ℃. The gas flow rate was maintained at 11.0 L/min, with the capillary voltage of 4000 V.

[2] = parameters: method as in PMID 38276513; conditions: following gonadectomy; cited from earlier work
[3] = cited from earlier work
[4] = parameters: method as in PMID 27169283; conditions: ovariectomized rat, plasma; cited from earlier work
[5] = female, GDX female rats, oral 0.59 mg/kg
[6] = female, intact female rats, oral 0.59 mg/kg
[7] = male, GDX male rats, oral 0.59 mg/kg
[8] = male, intact male rats, oral 0.59 mg/kg

For `O=C1C[C@@H]2OCC=C3CN4CC[C@]56c7ccccc7N1[C@H]5[C@H]2[C@H]3C[C@H]46` [strychnine, Strychnine nitrate], which “delay of time to peak concentration, female later than male rats” value ([1]; GDX group, oral 0.59 mg/kg) is on record?
Its value is 0.6 h.

What about the “peak of plasma concentration in female rats relative to male rats” value ([1]; GDX group, oral 0.59 mg/kg) of the same molecule?
The value was 3.70 times.

What about the AUC(0-t) [1, 5] of the same molecule?
Its AUC(0-t) is 489 ± 40.6 ng·h/mL.

And the AUC(0-t) [1, 6]?
The AUC(0-t) was 409 ± 58.4 ng·h/mL.

And the AUC(0-inf) [1, 5]?
The AUC(0-inf) was 501 ± 43.5 ng·h/mL.

What about the AUC(0-inf) [1, 6] of the same molecule?
Its AUC(0-inf) is 403 ± 57.7 ng·h/mL.

What about the Cmax [1, 5] of the same molecule?
The Cmax was 48.1 ± 4.06 ng/mL.

What about the Cmax [1, 6] of the same molecule?
Its Cmax is 116 ± 2.7 ng/mL.

What about the Tmax ([1]; female) of the same molecule?
The Tmax was 0.63 ± 0.14 h.

What about the Tmax [1, 5] of the same molecule?
Its Tmax is 1.6 ± 0.22 h.

And the half-life ([1]; female, t1/2, GDX female rats, oral 0.59 mg/kg)?
Its half-life is 9.06 ± 1.82 h.

What about the half-life ([1]; female, t1/2, intact female rats, oral 0.59 mg/kg) of the same molecule?
The half-life was 5.7 ± 2.6 h.

And the “delay of time to peak concentration, female later than male rats” value ([1]; intact group, oral 0.59 mg/kg)?
The value was 0.05 h.

And the “peak of plasma concentration in female rats relative to male rats” value ([1]; intact group, oral 0.59 mg/kg)?
Its value is 3.49 times.

And the AUC(0-t) [1, 7]?
Its AUC(0-t) is 152 ± 10.4 ng·h/mL.

And the AUC(0-t) [1, 8]?
The AUC(0-t) was 96.8 ± 24.9 ng·h/mL.

What about the AUC(0-inf) [1, 7] of the same molecule?
Its AUC(0-inf) is 153 ± 10.3 ng·h/mL.

What about the AUC(0-inf) [1, 8] of the same molecule?
The AUC(0-inf) was 97 ± 24.7 ng·h/mL.

And the Cmax [1, 7]?
Its Cmax is 13 ± 0.6 ng/mL.

What about the Cmax [1, 8] of the same molecule?
Its Cmax is 33.4 ± 2.01 ng/mL.

And the Tmax ([1]; male)?
The Tmax was 0.58 ± 0.13 h.

And the Tmax [1, 7]?
Its Tmax is 1 h.

And the half-life ([1]; male, t1/2, GDX male rats, oral 0.59 mg/kg)?
Its half-life is 7.68 ± 0.94 h.

And the half-life ([1]; male, t1/2, intact male rats, oral 0.59 mg/kg)?
The half-life was 3.84 ± 1.48 h.

What does the source list for `NCCCC(=O)O` [γ-aminobutyric acid]?
area under the curve, testosterone-treated male rats versus female rats with similar treatment [2]: higher; renal clearance, testosterone-treated male rats versus female rats with similar treatment [2]: significantly lower

What does the source list for `COc1c([C@H]2[C@H](C(=O)Nc3ccnc(C(N)=O)c3)O[C@@](C)(C(F)(F)F)[C@H]2C)ccc(F)c1F` [VX-548]?
AUC ([3]; female rats): 1505.8 ± 47.3 ng·h/mL; clearance rate ([3]; female rats): 12.5 ± 0.8 mL/min/kg; AUC ([3]; male rats): 253.8 ± 6.3 ng·h/mL; clearance rate ([3]; male rats): 65.1 ± 1.7 mL/min/kg

Which “peak digoxin concentration after ovariectomy” value [4] does the source give for `C[C@H]1O[C@@H](O[C@H]2[C@@H](O)C[C@H](O[C@H]3[C@@H](O)C[C@H](O[C@H]4CC[C@@]5(C)[C@H](CC[C@@H]6[C@@H]5C[C@@H](O)[C@]5(C)[C@@H](C7=CC(=O)OC7)CC[C@]65O)C4)O[C@@H]3C)O[C@@H]2C)C[C@H](O)[C@@H]1O` [digoxin] here?
Its value is “significantly lower”.
